{"source": "paper PMC5421877", "about": "“SOCS3 inhibits the pathological effects of IL-22 in non-melanoma skin tumor-derived keratinocytes” (Oncotarget, 2017)", "key": {"healthy keratinocytes": {"tested_on": "healthy keratinocytes", "experiment": "CyQUANT proliferation assay, healthy keratinocytes", "format": "cell-based, human", "conditions": "healthy KC; PD98059 20 μM or S3I-201 10 μM, 48 h", "procedure": "(§1) Figure 6 IL-22-induced proliferation and migration of healthy and transformed keratinocytes is counteracted by KIR-ESS peptide (A) Healthy KC, CAL27 and CAL33 cultures were plated in 96-well plates in quadruplicate for each condition. After 1 day, cells were pre-treated or not with Ctrl1 or KIR-ESS peptides (40 μM), or S31-201 ([…]) and PD98059 ([…]) chemical inhibitors, and, then, stimulated or not with 50 ng/ml of IL-22. Data relative to 48-h treatment are shown and expressed as the values of fluorescence intensity obtained from untreated and IL-22-treated ± SD. Three independent experiments were performed. *p < 0.01. […] (C) Cell-free area was measured and indicated as residual wound. […]\n(§2) SOCS1- and SOCS3 stably transfected keratinocytes or cultured keratinocytes previously transfected with SOCS3 or control siRNA were seeded in 96-well plates (1.5–2.0 × 10^4 cells/well), and, the day after, starved in medium without serum. At 60% confluence, cells were treated with 75 ng/ml of IL-22 for 3 days, stained with 0.5% crystal violet (Bio-Rad, Hercules, CA, USA), and then analyzed in an ELISA reader (model 3550 UV ELISA reader; Bio-Rad). […] After 1-h pre-incubation, cells were treated with IL-22 or left unstimulated, cultured for other 24, 48 and 72 h, and the number of viable cells determined by CyQUANT Cell Proliferation Assay, accordingly to manufacture's protocol. […]"}, "[1]": {"tested_on": "SCC-cell lines (CAL27 and CAL33)", "experiment": "CyQUANT proliferation assay, SCC-cell lines", "format": "cell-based", "conditions": "PD98059 20 μM or S3I-201 10 μM, 48 h", "procedure": "as §1, §2"}, "CAL27 cells": {"tested_on": "CAL27 cells", "experiment": "Scratch assay (migration), CAL27", "format": "cell-based", "conditions": "24 h", "procedure": "(§3) Figure 6 IL-22-induced proliferation and migration of healthy and transformed keratinocytes is counteracted by KIR-ESS peptide (A) Healthy KC, CAL27 and CAL33 cultures were plated in 96-well plates in quadruplicate for each condition. After 1 day, cells were pre-treated or not with Ctrl1 or KIR-ESS peptides (40 μM), or S31-201 ([…]) and PD98059 ([…]) chemical inhibitors, and, then, stimulated or not with 50 ng/ml of IL-22. Data relative to 48-h treatment are shown and expressed as the values of fluorescence intensity obtained from untreated and IL-22-treated ± SD. Three independent experiments were performed. *p < 0.01. (B) Scratch assays were carried out on healthy or SCC-lines, pre-incubated with mitomycin C (5 mg/ml), pre-treated with Ctrl1 or KIR-ESS peptides (40 μM), or S31-201 ([…]) or PD98059 ([…]) chemical inhibitors, and, then, stimulated or not with IL-22 for 24 h. Microscopic images were taken immediately after and 24 h after wound induction on confluent cell layers. Initial scratches (0 h) are dashed blank. (C) Cell-free area was measured and indicated as residual wound. Data are reported as healed wound (gray area of bars) vs residual wound (white area of bars) which a value of 100% was given. *p < 0.01.\n(§4) Cultured keratinocytes and SCC cell lines were grown at 100% confluence on type IV collagen (20 μg/ml), and then incubated with mitomycin C (5 mg/ml) (Sigma-Aldrich) for 1 h. Cell monolayers were scratched with the tip of a p-200 pipette to create uniform cell-free zones, and, then, pre-treated with appropriate concentrations of SOCS3 mimetic or control peptides, or with 10 μM STAT3 (S3I-201, Santa Cruz) and 20 μM Erk1/2 (PD98059, Calbiochem) inhibitors for 1 h, before treating by 50 ng/ml of IL-22. Microscopy pictures were taken with a digital camera at different time points following IL-22 treatment. The residual gap between migrating keratinocytes was measured with a computer-assisted image analysis system (Axiovision; Zeiss, Oberkochen, Germany), and expressed as percentage of the initial scratched area."}, "CAL33 cells": {"tested_on": "CAL33 cells", "experiment": "Scratch assay (migration), CAL33", "format": "cell-based", "conditions": "CAL33; 40 μM peptide, PD98059 20 μM or S3I-201 10 μM; IL-22 50 ng/ml, 24 h", "procedure": "as §3, §4"}, "[2]": {"tested_on": "SOCS3 expression in healthy keratinocytes", "experiment": "SOCS3 mRNA and protein induction in healthy keratinocytes", "format": "cell-based, human", "conditions": "healthy keratinocytes, 3 h mRNA, 6 h protein", "procedure": "Figure 1 IL-22 induces SOCS3, which limits STAT3 and Erk1/2 activation (A) Keratinocyte cultures (n = 3) were stimulated with IL-22 or not for 10 min and protein lysates were subjected to immunoprecipitation and WB analyses for basal and phospho-IL-22R1, Tyk2 or Jak1. (B) WB of time-course experiments were performed on keratinocyte cultures (n = 3) to evaluate basal STAT3, Erk1/2 and MEK or phosphor-STAT3 (Tyr705 and Ser 727), phosphor-Erk1/2 and phospho-MEK. Anti-β-actin Ab was used to normalize sample loading. (C) SOCS mRNA and protein levels were detected by real-time PCR or WB analyses in cultured keratinocytes prepared from healthy skin (n = 3) left untreated or stimulated with IL-22 for the indicated time periods and normalized with β-actin values. (D) HaCaT cells stably transfected with myc-tagged SOCS1 (n = 4), SOCS2 (n = 2) and SOCS3 (n = 4) genes or control plasmids (mock, n = 3) were left untreated or stimulated with IL-22 for 15 min or 3 h and lysates subjected to WB with anti-phospho STAT3 (Tyr705), -phospho STAT3 (Ser727), -STAT3, -phospho Erk, -Erk, -c-myc and -β-actin Abs, as indicated. (E) Keratinocyte cultures were transiently transfected with siRNA specific for SOCS3 or control siRNA (NC). After 48-h transfection, cells were stimulated with IL-22 or not for the indicated time periods. In RNA interference experiments, data were obtained by three independent experiments, and SOCS3 depletion was assessed by real-time PCR and WB. […] Data are expressed as ratio of densitometric intensity (D. I.) of phosphorylated and unphosphorylated STAT3 and Erk1/2 proteins. p < 0.05 (*) values were considered significant.\nFigure 4 SOCS3 and SOCS1 are poorly expressed in the epidermis of NMSC lesions and are not induced in transformed keratinocytes by IL-22 (A) Immunohistochemistry for SOCS3 and SOCS1 (red staining) was performed respectively on frozen or paraffin-embedded sections from biopsies of healthy skin (i), NLS (ii, iii) and LS (iv, v) areas of BCC and SCC, specimens. Psoriatic skin biopsies were also analyzed (vi). Sections were counterstained with Mayer's H&E and were visually evaluated by an pathologist experienced in dermatology. […] (B) Graphs show SOCS3 and SOCS1 mRNA levels which were detected by real-time PCR analysis in cultured SCC (CAL27 and CAL33) and BCC (M77015) skin tumor lines left untreated or stimulated with IL-22 or IFN-γ for 3 h and normalized for β-actin mRNA expression levels. […] SOCS1 was detected by IP using a specific anti-SOCS1 Ab, whereas SOCS3 by WB with an anti-SOCS3 Ab. […] Densitometric intensity (D.I.) of SOCS1 or SOCS3/β-actin was calculated from three independent experiments and numerically expressed as D. I. Ratio. *p < 0.01; **p < 0.05. […] SOCS3 and phospho-Tyr STAT3 levels were detected by WB and normalized to β-actin levels. […]"}, "[3]": {"tested_on": "SOCS3 expression in SCC and BCC skin tumor lines", "experiment": "SOCS3 mRNA and protein induction in SCC or BCC tumor cells", "format": "cell-based", "conditions": "SCC (CAL27, CAL33) and BCC (M77015) lines, 3 h mRNA, 6 h protein", "procedure": "(§5) Figure 4 SOCS3 and SOCS1 are poorly expressed in the epidermis of NMSC lesions and are not induced in transformed keratinocytes by IL-22 (A) Immunohistochemistry for SOCS3 and SOCS1 (red staining) was performed respectively on frozen or paraffin-embedded sections from biopsies of healthy skin (i), NLS (ii, iii) and LS (iv, v) areas of BCC and SCC, specimens. Psoriatic skin biopsies were also analyzed (vi). Sections were counterstained with Mayer's H&E and were visually evaluated by an pathologist experienced in dermatology. One out of four representative staining is shown. Scale bars, […]. (B) Graphs show SOCS3 and SOCS1 mRNA levels which were detected by real-time PCR analysis in cultured SCC (CAL27 and CAL33) and BCC (M77015) skin tumor lines left untreated or stimulated with IL-22 or IFN-γ for 3 h and normalized for β-actin mRNA expression levels. All data were obtained from three independent experiments. […] SOCS1 was detected by IP using a specific anti-SOCS1 Ab, whereas SOCS3 by WB with an anti-SOCS3 Ab. […] Densitometric intensity (D.I.) of SOCS1 or SOCS3/β-actin was calculated from three independent experiments and numerically expressed as D. I. Ratio. *p < 0.01; **p < 0.05. […] SOCS3 and phospho-Tyr STAT3 levels were detected by WB and normalized to β-actin levels. […]"}, "[4]": {"tested_on": "SOCS1 expression in keratinocytes and SCC/BCC lines", "experiment": "SOCS1 mRNA and protein induction", "format": "cell-based", "conditions": "all cell lines, 3 h mRNA, 6 h protein", "procedure": "as §5"}}}
{"compound": "Cc1ccc(S(=O)(=O)OCC(=O)Nc2ccc(C(=O)O)c(O)c2)cc1", "note": "[S3I-201]", "values": [{"measurement": "proliferation (effect relative to KIR-ESS)", "setting": "healthy keratinocytes", "result": "KIR-ESS effect was similar to that observed in all healthy and transformed keratinocyte cultures"}, {"measurement": "proliferation (effect relative to KIR-ESS)", "setting": "[1]", "result": "KIR-ESS effect was similar to that observed in all healthy and transformed keratinocyte cultures"}, {"measurement": "wound closure / migration, resting cells", "setting": "CAL27 cells; CAL27, without IL-22, 40 μM peptide or S31-201 10 μM", "result": "efficacious in inhibiting migration of CAL27 cells"}, {"measurement": "wound closure, IL-22-treated", "setting": "CAL27 cells; CAL27, 40 μM peptide, PD98059 20 μM or S3I-201 10 μM, IL-22 50 ng/ml", "result": "effect similar to those obtained with the chemical Erk1/2 and STAT3 inhibitors"}, {"measurement": "wound closure, IL-22-treated", "setting": "CAL33 cells", "result": "effect similar to those obtained with the chemical Erk1/2 and STAT3 inhibitors"}]}
{"compound": "IFN-γ: cytokine stimulus, R&D Systems", "values": [{"measurement": "SOCS3 mRNA and protein expression", "setting": "[2]", "result": "significantly up-regulated by IFN-γ in all cell lines"}, {"measurement": "SOCS3 mRNA and protein expression", "setting": "[3]", "result": "significantly up-regulated by IFN-γ in all cell lines"}, {"measurement": "SOCS1 mRNA and protein expression", "setting": "[4]", "result": "significantly up-regulated by IFN-γ in all cell lines both at transcriptional and protein level, with the exception of SOCS1 protein in the BCC lines"}]}
